Data reported in PubChem BioAssay AID330 (DTP/NCI, 2004).
Several values for one entry are separate records, joined by “and”; a condition that tells them apart may be missing. Identical values can stand only once. Toxic doses and inconclusive results are not listed.

Test system: P388 leukemia ip, CD2F1 mice, survival T/C
Experiment: NCI In Vivo Anticancer Drug Screen. Data for tumor model P388 Leukemia (intraperitoneal) in CD2F1 (CDF1) mice
Settings: endpoint: median survival time, higher = longer survival
Procedure, shortened: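 Mice carrying the transplanted tumor received test compound or vehicle. Survival was recorded in each group, and the value is the treated-group measurement divided by that of the vehicle-treated control group.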

[1] = dose: 50.0 mg/kg/injection, schedule: Q01DX005 (ip), vehicle: saline with Tween-80
[2] = dose: 100.0 mg/kg/injection, schedule: Q01DX005 (ip), vehicle: saline with Tween-80
[3] = dose: 60.0 mg/kg/injection, schedule: Q01DX005 (ip), vehicle: Klucel (hydroxypropylcellulose) (HPC)
[4] = dose: 120.0 mg/kg/injection, schedule: Q01DX005 (ip), vehicle: Klucel (hydroxypropylcellulose) (HPC)
[5] = dose: 240.0 mg/kg/injection, schedule: Q01DX005 (ip), vehicle: Klucel (hydroxypropylcellulose) (HPC)
[6] = dose: 50.0 mg/kg/injection, schedule: Q01DX009 (ip), vehicle: Klucel (hydroxypropylcellulose) (HPC)
[7] = dose: 100.0 mg/kg/injection, schedule: Q01DX009 (ip), vehicle: Klucel (hydroxypropylcellulose) (HPC)
[8] = dose: 60.0 mg/kg/injection, schedule: Q01DX005 (ip), vehicle: saline with Tween-80
[9] = dose: 120.0 mg/kg/injection, schedule: Q01DX005 (ip), vehicle: saline with Tween-80
[10] = dose: 240.0 mg/kg/injection, schedule: Q01DX005 (ip), vehicle: saline with Tween-80
[11] = dose: 50.0 mg/kg/injection, schedule: Q01DX005 (ip), vehicle: Klucel (hydroxypropylcellulose) (HPC)
[12] = dose: 100.0 mg/kg/injection, schedule: Q01DX005 (ip), vehicle: Klucel (hydroxypropylcellulose) (HPC)
[13] = dose: 200.0 mg/kg/injection, schedule: Q01DX005 (ip), vehicle: Klucel (hydroxypropylcellulose) (HPC)
[14] = dose: 100.0 mg/kg/injection, schedule: Q04DX003 (ip), vehicle: saline with Tween-80
[15] = dose: 200.0 mg/kg/injection, schedule: Q04DX003 (ip), vehicle: saline with Tween-80

## O=C(O)c1c(CS(F)(F)(F)(F)F)cc(=O)oc1CS(F)(F)(F)(F)F
[1]
  T/C: 106 % of control
[2]
  T/C: 105 % of control

## CC(C)(C)OC(=O)CS(=O)(=O)Nc1ccccc1O
[3]
  T/C: 106 % of control
[4]
  T/C: 86 % of control
[5]
  T/C: 97 % of control

## COc1ccc(Cl)cc1C(=O)NCCc1ccc(CCC(=O)O)cc1
[6]
  T/C: 99 % of control
[7]
  T/C: 98 % of control
dose: 200.0 mg/kg/injection, schedule: Q01DX009 (ip), vehicle: Klucel (hydroxypropylcellulose) (HPC)
  T/C: 102 % of control

## CN=C(N)N/N=C(\C)c1ccc(/C(C)=N/NC(N)=NC)cc1
dose: 25.0 mg/kg/injection, schedule: Q04DX002 (ip), vehicle: saline with Tween-80
  T/C: 112 % of control

## O=C(CNC(=O)c1ccccc1)N/N=C\c1c[nH]c2ccccc12
[8]
  T/C: 101 % of control
[9]
  T/C: 100 % of control
[10]
  T/C: 96 % of control

## Cc1cccc(NCc2ccncc2)n1
dose: 6.25 mg/kg/injection, schedule: Q01DX005 (ip), vehicle: saline with Tween-80
  T/C: 92 % of control
dose: 12.5 mg/kg/injection, schedule: Q01DX005 (ip), vehicle: saline with Tween-80
  T/C: 102 % of control
dose: 25.0 mg/kg/injection, schedule: Q01DX005 (ip), vehicle: saline with Tween-80
  T/C: 100 % of control
[1]
  T/C: 100 % of control

## CC(/C=C/C1OC(=O)C=CC1C)=C\C(C)C/C=C/C(C)=C/C(C)C(=O)C(C)C(O)C(C)C/C(C)=C/C(=O)O (stereo unspecified)
dose: 2.5 micrograms/kg/injection, schedule: Q01DX005 (ip), vehicle: saline + alcohol
  T/C: 101 % of control
dose: 5.0 micrograms/kg/injection, schedule: Q01DX005 (ip), vehicle: saline + alcohol
  T/C: 99 % of control
dose: 10.0 micrograms/kg/injection, schedule: Q01DX005 (ip), vehicle: saline + alcohol
  T/C: 106 % of control
dose: 20.0 micrograms/kg/injection, schedule: Q01DX005 (ip), vehicle: saline + alcohol
  T/C: 100 % of control
dose: 100.0 micrograms/kg/injection, schedule: Q01DX005 (ip), vehicle: alcohol
  T/C: 150 % of control
dose: 200.0 micrograms/kg/injection, schedule: Q01DX005 (ip), vehicle: alcohol
  T/C: 159 % of control

## C=C(C)C1Cc2c(cc(OC)c3c(=O)c4cccc(O)c4oc23)O1 (stereo unspecified)
dose: 2.5 mg/kg/injection, schedule: Q01DX009 (ip), vehicle: distilled water + alcohol
  T/C: 104 % of control
dose: 5.0 mg/kg/injection, schedule: Q01DX009 (ip), vehicle: distilled water + alcohol
  T/C: 101 % of control
dose: 10.0 mg/kg/injection, schedule: Q01DX009 (ip), vehicle: distilled water + alcohol
  T/C: 99 % of control

## C=C(C)C(=O)Nc1ccc(NS(=O)(=O)c2ccc(C(C)CC)cc2)c(O)c1 (stereo unspecified)
dose: 50.0 mg/kg/injection, schedule: Q01DX009 (ip), vehicle: saline + alcohol
  T/C: 101 % of control
dose: 100.0 mg/kg/injection, schedule: Q01DX009 (ip), vehicle: saline + alcohol
  T/C: 106 % of control
dose: 200.0 mg/kg/injection, schedule: Q01DX009 (ip), vehicle: saline + alcohol
  T/C: 106 % of control

## Cc1cccc2c(SCCCCCCSc3c4ccccc4nc4c(C)cccc34)c3ccccc3nc12
[3]
  T/C: 90 % of control
[4]
  T/C: 92 % of control
[5]
  T/C: 91 % of control

## Cc1ccc(S(=O)(=O)OCCC(C)OS(=O)(=O)c2ccc(C)cc2)cc1 (stereo unspecified)
[8]
  T/C: 100 % of control
[9]
  T/C: 100 % of control
[10]
  T/C: 101 % of control

## COCCNC(=S)SCCN(C(C)C)C(C)C
[1]
  T/C: 104 % of control
[2]
  T/C: 106 % of control

## Nc1c(O)c(S(=O)(=O)O)c(O)c2c1C(=O)c1ccccc1C2=O
[8]
  T/C: 100 % of control
[9]
  T/C: 98 % of control

## O=C1C=CC(=Nc2ccc(N(CCCl)CCCl)cc2)c2ccccc21
[6]
  T/C: 171 % of control
[7]
  T/C: 156 % of control and 181 % of control

## CC1=CC(=C2C(=O)c3ccccc3C2=O)C=C(C)N1CCNCCO
[3]
  T/C: 99 % of control
[4]
  T/C: 90 % of control
[5]
  T/C: 93 % of control

## Nc1nc2c(C(=O)NCc3cccs3)nnn2c2cccc(Cl)c12
[8]
  T/C: 96 % of control
[9]
  T/C: 92 % of control
[10]
  T/C: 95 % of control

## COC(=O)C1=COC(OC2OC(COC(C)=O)C(OC(C)=O)C(OC(C)=O)C2OC(C)=O)C2C(C)CC(OC(C)=O)C12 (stereo unspecified)
dose: 12.5 mg/kg/injection, schedule: Q01DX005 (ip), vehicle: Klucel (hydroxypropylcellulose) (HPC)
  T/C: 105 % of control
dose: 25.0 mg/kg/injection, schedule: Q01DX005 (ip), vehicle: Klucel (hydroxypropylcellulose) (HPC)
  T/C: 98 % of control
[11]
  T/C: 96 % of control

## COc1ccc([B-]23OCC[N+]2(CNC(=O)C2=C(O)C4(O)C(=O)C5=C(O)c6c(O)cccc6C(C)(O)C5CC4C(N(C)C)C2=O)CCO3)cc1 (stereo unspecified)
[11]
  T/C: 105 % of control
[12]
  T/C: 105 % of control
[13]
  T/C: 105 % of control

## C=C(C)C(=O)NCC(=O)NCC(=O)NCC(=O)Oc1ccc([N+](=O)[O-])cc1
dose: 50.0 mg/kg/injection, schedule: Q04DX003 (ip), vehicle: saline with Tween-80
  T/C: 100 % of control
[14]
  T/C: 90 % of control
[15]
  T/C: 99 % of control

## Cc1nc(-c2ccccc2)nc2c1nc(Cc1ccc(Cl)cc1)n2Nc1ccccc1
[11]
  T/C: 95 % of control
[12]
  T/C: 91 % of control
[13]
  T/C: 88 % of control

## CCOC(=O)CCC(NC(=O)N(CCCl)CCCl)C(=O)OCC (stereo unspecified)
dose: 50.0 mg/kg/injection, schedule: Q01DX009 (ip), vehicle: saline with Tween-80
  T/C: 154 % of control
dose: 100.0 mg/kg/injection, schedule: Q01DX009 (ip), vehicle: saline with Tween-80
  T/C: 168 % of control
[14]
  T/C: 113 % of control
dose: 132.0 mg/kg/injection, schedule: Q04DX003 (ip), vehicle: saline with Tween-80
  T/C: 168 % of control
dose: 200.0 mg/kg/injection, schedule: Q01DX009 (ip), vehicle: saline with Tween-80
  T/C: 181 % of control
[15]
  T/C: 150 % of control and 172 % of control
dose: 300.0 mg/kg/injection, schedule: Q04DX003 (ip), vehicle: saline with Tween-80
  T/C: 195 % of control

## CC(=O)N(C)OS(C)(=O)=O
dose: 50.0 mg/kg/injection, schedule: Q01DX001 (ip), vehicle: saline with Tween-80
  T/C: 108 % of control
[1]
  T/C: 101 % of control
dose: 100.0 mg/kg/injection, schedule: Q01DX001 (ip), vehicle: saline with Tween-80
  T/C: 100 % of control
[2]
  T/C: 103 % of control
dose: 200.0 mg/kg/injection, schedule: Q01DX001 (ip), vehicle: saline with Tween-80
  T/C: 104 % of control
dose: 200.0 mg/kg/injection, schedule: Q01DX005 (ip), vehicle: saline with Tween-80
  T/C: 106 % of control
dose: 400.0 mg/kg/injection, schedule: Q01DX001 (ip), vehicle: saline with Tween-80
  T/C: 104 % of control

## N#CC(C#N)=CC(C#N)C#N
dose: 12.5 mg/kg/injection, schedule: Q01DX005 (ip), vehicle: saline
  T/C: 104 % of control
dose: 25.0 mg/kg/injection, schedule: Q01DX005 (ip), vehicle: saline
  T/C: 101 % of control
dose: 50.0 mg/kg/injection, schedule: Q01DX005 (ip), vehicle: saline
  T/C: 107 % of control and 92 % of control

## CC(C)(C)c1cc(C(=O)O)c(Br)c(C(=O)O)c1
dose: 50.0 mg/kg/injection, schedule: Q01DX009 (ip), vehicle: saline
  T/C: 97 % of control
dose: 100.0 mg/kg/injection, schedule: Q01DX009 (ip), vehicle: saline
  T/C: 102 % of control
dose: 200.0 mg/kg/injection, schedule: Q01DX009 (ip), vehicle: saline
  T/C: 100 % of control

## CC1(CC(=O)O)OC(c2ccccc2)=CC1=O (stereo unspecified)
dose: 100.0 mg/kg/injection, schedule: Q01DX001 (ip), vehicle: Klucel (hydroxypropylcellulose) (HPC)
  T/C: 98 % of control
dose: 200.0 mg/kg/injection, schedule: Q01DX001 (ip), vehicle: Klucel (hydroxypropylcellulose) (HPC)
  T/C: 92 % of control
dose: 400.0 mg/kg/injection, schedule: Q01DX001 (ip), vehicle: Klucel (hydroxypropylcellulose) (HPC)
  T/C: 92 % of control

## CN1C(=O)CN=C(c2ccccn2)c2cc(Cl)ccc21
dose: 75.0 mg/kg/injection, schedule: Q01DX001 (ip), vehicle: saline with Tween-80
  T/C: 104 % of control
dose: 150.0 mg/kg/injection, schedule: Q01DX001 (ip), vehicle: saline with Tween-80
  T/C: 104 % of control
dose: 300.0 mg/kg/injection, schedule: Q01DX001 (ip), vehicle: saline with Tween-80
  T/C: 104 % of control

## CCOc1c(N=Nc2cccc(Cl)c2)c(C)nn1C(=S)S
dose: 15.0 mg/kg/injection, schedule: Q01DX005 (ip), vehicle: Klucel + Tween-80
  T/C: 94 % of control
dose: 30.0 mg/kg/injection, schedule: Q01DX005 (ip), vehicle: Klucel + Tween-80
  T/C: 90 % of control
